Publication PMC3969779 (Journal of molecular biology, 2013)
Ends that are not written are not given here.

B1: BRPF1 bromodomain 629-742 (protein)
chain: QLTPFLILLRKTLEQLQEKDTGNIFSEPVPLSEVPDYLDHIKKPMDFFTMKQNLEAYRYLNFDDFEEDFNLIVSNCLKYNAKDTIFYRAAVRLREQGGAVLRQARRQAEKMGID

Assays:
[1] = target: T1, BRPF1 bromodomain (Homo sapiens, UniProt P55201); assay: NMR titration; assay type: binding
T1 sequence (P55201 629-742): B1 chain

[2] = target: T1, BRPF1 bromodomain; assay: Isothermal titration calorimetry; assay type: binding
[3] = target: T2, Histone H4K12ac peptide (4-17) (Homo sapiens); assay: NMR titration
T2 chain: GKGGKGLGK(Ac)GGAKR

[4] = target: T3, Histone H4K8ac peptide (4-17) (Homo sapiens, H4 K8 acetylated); assay: NMR titration
T3 chain: GKGGKGLGKGGAKR

[5] = target: T4, Histone H2AK5ac peptide (1-12) (Homo sapiens); assay: NMR titration
T4 chain: SGRGK(Ac)QGGKARA

[6] = target: T5, Histone H3K14ac peptide (8-19) (Homo sapiens); assay: NMR titration
T5 chain: RKSTGGK(Ac)APRKQ

Molecule	Kd [1] [µM]	Kd [2] [µM]	Kd [3] [µM]	Kd [4] [µM]	Kd [5] [µM]	Kd [6] [µM]
SGRGK(Ac)QGGKARA-NH2 [H2AK5ac (1-12)]	57 ± 4	48.5 ± 1.5				
CC(=O)NCCCC[C@H](NC(=O)CNC(=O)[C@H](CC(C)C)NC(=O)CNC(=O)[C@H](CCCCN)NC(=O)CNC(=O)CNC(=O)[C@H](CCCCN)NC(=O)CN)C(=O)NCC(=O)NCC(=O)N[C@@H](C)C(=O)N[C@@H](CCCCN)C(=O)N[C@@H](CCCNC(=N)N)C(N)=O [H4K12ac (4-17)]	74 ± 18	86.5 ± 9.1				
CC(=O)NCCCC[C@H](NC(=O)CNC(=O)CNC(=O)[C@@H](NC(=O)[C@H](CO)NC(=O)[C@H](CCCCN)NC(=O)[C@@H](N)CCCNC(=N)N)[C@@H](C)O)C(=O)N[C@@H](C)C(=O)N1CCC[C@H]1C(=O)N[C@@H](CCCNC(=N)N)C(=O)N[C@@H](CCCCN)C(=O)N[C@@H](CCC(N)=O)C(N)=O [H3K14ac (8-19)]	597 ± 53	626 ± 27				
CC(=O)NCCCC[C@H](NC(=O)CNC(=O)CNC(=O)[C@H](CCCCN)NC(=O)CN)C(=O)NCC(=O)N[C@@H](CC(C)C)C(=O)NCC(=O)N[C@@H](CCCCN)C(=O)NCC(=O)NCC(=O)N[C@@H](C)C(=O)N[C@@H](CCCCN)C(=O)N[C@@H](CCCNC(=N)N)C(N)=O [H4K8ac (4-17)]	697 ± 57					
B1			74	697	57	597
